Where “and” joins values, the source holds several entries; their conditions need not be identical. Identical values can stand only once. Toxic doses and inconclusive results are not listed. Rule for the calls: active = survival T/C of 150% or more; inactive = T/C below 125% in these data.
System: BDF1 mice, P388 leukemia ip, median survival T/C
Assay: NCI In Vivo Anticancer Drug Screen. Data for tumor model P388 Leukemia (intraperitoneal) in B6D2F1 (BDF1) mice
Settings: endpoint: median survival time, higher = longer survival
Outline: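 Mice carrying the transplantable tumour receive compound or vehicle. Survival is followed in each arm, and the treated measure is divided by the vehicle measure.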

[1] = dose: 12.5 mg/kg/injection, schedule: Q01DX009 (ip), vehicle: saline
[2] = dose: 50.0 mg/kg/injection, schedule: Q01DX009 (ip), vehicle: saline
[3] = dose: 50.0 mg/kg/injection, schedule: Q04DX003 (ip), vehicle: saline
[4] = dose: 100.0 mg/kg/injection, schedule: Q04DX003 (ip), vehicle: saline
[5] = dose: 200.0 mg/kg/injection, schedule: Q04DX003 (ip), vehicle: saline
[6] = dose: 25.0 mg/kg/injection, schedule: Q01DX009 (ip), vehicle: saline
[7] = dose: 50.0 mg/kg/injection, schedule: Q01DX009 (ip), vehicle: saline with Tween-80
[8] = dose: 100.0 mg/kg/injection, schedule: Q01DX009 (ip), vehicle: Klucel (hydroxypropylcellulose) (HPC)
[9] = dose: 100.0 mg/kg/injection, schedule: Q01DX009 (ip), vehicle: saline with Tween-80
[10] = dose: 100.0 mg/kg/injection, schedule: Q01DX009 (ip), vehicle: saline
[11] = dose: 200.0 mg/kg/injection, schedule: Q01DX009 (ip), vehicle: Klucel (hydroxypropylcellulose) (HPC)
[12] = dose: 200.0 mg/kg/injection, schedule: Q01DX009 (ip), vehicle: saline with Tween-80
[13] = dose: 200.0 mg/kg/injection, schedule: Q01DX009 (ip), vehicle: saline
[14] = dose: 400.0 mg/kg/injection, schedule: Q01DX009 (ip), vehicle: Klucel (hydroxypropylcellulose) (HPC)
[15] = dose: 25.0 mg/kg/injection, schedule: Q04DX003 (ip), vehicle: saline with Tween-80
[16] = dose: 50.0 mg/kg/injection, schedule: Q04DX003 (ip), vehicle: saline with Tween-80
[17] = dose: 100.0 mg/kg/injection, schedule: Q04DX003 (ip), vehicle: saline with Tween-80
[18] = dose: 200.0 mg/kg/injection, schedule: Q04DX003 (ip), vehicle: saline with Tween-80
[19] = dose: 12.5 mg/kg/injection, schedule: Q04DX003 (ip), vehicle: saline with Tween-80

Measured: T/C

CN(N=O)C(=O)NC(N)=O
active: dose: 5.4 mg/kg/injection, schedule: Q01DX009 (ip), vehicle: saline 152 % of control | dose: 11.0 mg/kg/injection, schedule: Q01DX009 (ip), vehicle: Klucel (hydroxypropylcellulose) (HPC) 161 % of control | dose: 12.5 mg/kg/injection, schedule: Q01DX009 (ip), vehicle: Klucel (hydroxypropylcellulose) (HPC) 155 % of control | [1] 165 % of control and 174 % of control | dose: 16.0 mg/kg/injection, schedule: Q01DX009 (ip), vehicle: Klucel (hydroxypropylcellulose) (HPC) 186 % of control | dose: 16.5 mg/kg/injection, schedule: Q01DX009 (ip), vehicle: Klucel (hydroxypropylcellulose) (HPC) 250 % of control and 161 % of control | dose: 18.0 mg/kg/injection, schedule: Q01DX009 (ip), vehicle: saline 170 % of control | dose: 25.0 mg/kg/injection, schedule: Q01DX009 (ip), vehicle: Klucel (hydroxypropylcellulose) (HPC) 159 % of control and 207 % of control | dose: 50.0 mg/kg/injection, schedule: Q04DX003 (ip), vehicle: Klucel (hydroxypropylcellulose) (HPC) 200 % of control
inactive: dose: 1.5 mg/kg/injection, schedule: Q01DX009 (ip), vehicle: saline 99 % of control | dose: 2.3 mg/kg/injection, schedule: Q01DX009 (ip), vehicle: saline 115 % of control | dose: 12.0 mg/kg/injection, schedule: Q04DX003 (ip), vehicle: Klucel (hydroxypropylcellulose) (HPC) 118 % of control | dose: 22.0 mg/kg/injection, schedule: Q04DX003 (ip), vehicle: Klucel (hydroxypropylcellulose) (HPC) 122 % of control | dose: 37.5 mg/kg/injection, schedule: Q01DX009 (ip), vehicle: Klucel (hydroxypropylcellulose) (HPC) 100 % of control and 105 % of control | [2] 105 % of control | dose: 75.0 mg/kg/injection, schedule: Q04DX003 (ip), vehicle: Klucel (hydroxypropylcellulose) (HPC) 122 % of control

CC(=O)NCCSC(=O)C(=O)SCCNC(C)=O
inactive: dose: 75.0 mg/kg/injection, schedule: Q01DX009 (ip), vehicle: Klucel (hydroxypropylcellulose) (HPC) 100 % of control | dose: 150.0 mg/kg/injection, schedule: Q01DX009 (ip), vehicle: Klucel (hydroxypropylcellulose) (HPC) 95 % of control

CN(C)C(=S)NN
inactive: dose: 0.25 mg/kg/injection, schedule: Q01DX009 (ip), vehicle: saline with Tween-80 90 % of control | dose: 0.5 mg/kg/injection, schedule: Q01DX009 (ip), vehicle: saline with Tween-80 90 % of control | dose: 0.78 mg/kg/injection, schedule: Q04DX003 (ip), vehicle: saline with Tween-80 100 % of control | dose: 1.0 mg/kg/injection, schedule: Q01DX009 (ip), vehicle: saline with Tween-80 95 % of control | dose: 1.56 mg/kg/injection, schedule: Q04DX003 (ip), vehicle: saline with Tween-80 105 % of control | dose: 3.12 mg/kg/injection, schedule: Q04DX003 (ip), vehicle: saline with Tween-80 95 % of control and 105 % of control

CN(C)NP(=O)(NN(C)C)N(C)C
inactive: [3] 100 % of control | [4] 113 % of control | [5] 95 % of control

CCOC(=O)c1cnn(-c2ccccc2)c1N
active: [7] 243 % of control | [9] 241 % of control
inactive: dose: 6.25 mg/kg/injection, schedule: Q04DX003 (ip), vehicle: saline 110 % of control | [1] 102 % of control | dose: 12.5 mg/kg/injection, schedule: Q04DX003 (ip), vehicle: saline 107 % of control | [6] 96 % of control | dose: 25.0 mg/kg/injection, schedule: Q04DX003 (ip), vehicle: saline 100 % of control | [2] 96 % of control and 104 % of control | [3] 100 % of control | [8] 104 % of control | [10] 104 % of control and 105 % of control | dose: 100.0 mg/kg/injection, schedule: Q04DX003 (ip), vehicle: Klucel (hydroxypropylcellulose) (HPC) 95 % of control | [4] 95 % of control | [11] 95 % of control | [12] 91 % of control | [13] 86 % of control | dose: 200.0 mg/kg/injection, schedule: Q04DX003 (ip), vehicle: Klucel (hydroxypropylcellulose) (HPC) 100 % of control | [14] 86 % of control | dose: 400.0 mg/kg/injection, schedule: Q04DX003 (ip), vehicle: Klucel (hydroxypropylcellulose) (HPC) 87 % of control

c1ccc(-c2cc(-c3ccccc3)on2)cc1
inactive: [9] 95 % of control | [12] 109 % of control | dose: 400.0 mg/kg/injection, schedule: Q01DX009 (ip), vehicle: saline with Tween-80 104 % of control

COc1ccc(C(=NO)c2ccc(OC)cc2)cc1
inactive: [8] 109 % of control | [10] 100 % of control and 109 % of control | [11] 118 % of control | [13] 105 % of control and 109 % of control | [14] 118 % of control | dose: 400.0 mg/kg/injection, schedule: Q01DX009 (ip), vehicle: saline 120 % of control

Cc1ccc(C)c(C(C)NC2=NCCO2)c1 (configuration not stated)
inactive: [15] 90 % of control | [16] 90 % of control

C=CC1CN2CCC1CC2C(O)c1ccnc2ccc(OC)cc12 (configuration not stated)
inactive: [2] 120 % of control | [10] 95 % of control | [13] 100 % of control

NC(N)=Nc1ccc(F)cc1
inactive: [7] 110 % of control | [9] 95 % of control | [12] 90 % of control

Cn1nnnc1[N-]Cc1ccccc1.[Au+].c1ccc([PH+](c2ccccc2)c2ccccc2)cc1
inactive: dose: 12.5 mg/kg/injection, schedule: Q01DX001 (ip), vehicle: saline with Tween-80 111 % of control | dose: 25.0 mg/kg/injection, schedule: Q01DX001 (ip), vehicle: saline with Tween-80 111 % of control | dose: 50.0 mg/kg/injection, schedule: Q01DX001 (ip), vehicle: saline with Tween-80 123 % of control

CCN(CC)CCCNc1c(OC)cc(C)c2sc3ccccc3c(=O)c12
inactive: [1] 93 % of control | [6] 108 % of control | [2] 112 % of control

CC1(C)O[C@@H]2C[C@H]3[C@@H]4CCC5=CC(=O)C=C[C@]5(C)[C@@]4(F)[C@@H](O)C[C@]3(C)[C@]2(C(=O)CO)O1
inactive: [7] 100 % of control | [17] 108 % of control | [18] 100 % of control

OCC1CSC(c2ccccc2)N1 (configuration not stated)
inactive: [7] 86 % of control | [9] 115 % of control | [12] 103 % of control

NC(N)=Nc1ccc(C(=O)Nc2ccc([N+](=O)[O-])cc2)cc1
inactive: [2] 101 % of control | [10] 103 % of control | [4] 97 % of control | [13] 91 % of control | [5] 91 % of control | dose: 400.0 mg/kg/injection, schedule: Q04DX003 (ip), vehicle: saline 100 % of control

O=C(NNC(=O)C12CC3CC(CC(C3)C1)C2)c1ccncc1
inactive: [7] 96 % of control | [9] 101 % of control | [12] 92 % of control

COC(=O)C1(Cc2ccccc2)CCCC1(C#N)O[Si](C)(C)C (configuration not stated)
inactive: [19] 92 % of control | [15] 106 % of control | [16] 97 % of control

Cc1ccc(CN(CC(=O)O)S(C)(=O)=O)cc1
inactive: dose: 100.0 mg/kg/injection, schedule: Q04DX003 (ip), vehicle: other 106 % of control | dose: 200.0 mg/kg/injection, schedule: Q04DX003 (ip), vehicle: other 109 % of control | dose: 400.0 mg/kg/injection, schedule: Q04DX003 (ip), vehicle: other 94 % of control

Cn1ncc2c(N)c(C#N)c(=O)[nH]c21
inactive: dose: 100.0 mg/kg/injection, schedule: Q01DX001 (ip), vehicle: saline with Tween-80 114 % of control

Cc1ccc(NS(=O)(=O)c2ccc(Br)cc2)c(C)c1
inactive: [17] 100 % of control | [18] 100 % of control | dose: 400.0 mg/kg/injection, schedule: Q04DX003 (ip), vehicle: saline with Tween-80 104 % of control

IC1CCCOC1[n+]1ccccc1 (configuration not stated)
inactive: dose: 6.0 mg/kg/injection, schedule: Q01DX009 (ip), vehicle: saline with Tween-80 104 % of control | dose: 12.0 mg/kg/injection, schedule: Q01DX009 (ip), vehicle: saline with Tween-80 109 % of control | [19] 96 % of control | dose: 25.0 mg/kg/injection, schedule: Q01DX009 (ip), vehicle: saline with Tween-80 104 % of control | [15] 107 % of control

O=c1oc2ccc(O)cc2c2ccccc12
inactive: dose: 50.0 mg/kg/injection, schedule: Q04DX003 (ip), vehicle: saline sonified 95 % of control | dose: 100.0 mg/kg/injection, schedule: Q04DX003 (ip), vehicle: saline sonified 100 % of control | dose: 200.0 mg/kg/injection, schedule: Q04DX003 (ip), vehicle: saline sonified 104 % of control

Reference: PubChem BioAssay AID328 (DTP/NCI, 2004)
